{"source": "patent US5668131A", "about": "“Substituted aminoalkylaminopyridines” (BYK Gulden Lomberg Chemische Fabrik GmbH, priority 1993, dated 1997)", "test_system": "Helicobacter pylori", "assay": "Activity on Helicobacter pylori (MIC, Columbia agar, 4 days growth period)", "assay_type": "cell-based", "conditions": "Columbia agar (Oxoid), growth period of 4 days; for MIC: Helicobacter pylori, 96 h", "note": "Where a name gives a salt, the structure may show the parent alone."}
{"smiles": "COc1cc2c(cc1OC)CN(CCN(C)c1ccnc(CSc3nc4ccccc4[nH]3)c1Cl)CC2", "note": "[Compound 14, 2-{3-Chloro-4-{N-[2-(6,7-dimethoxy-1,2,3,4-tetrahydro-2-isoquinolinyl)ethyl]-N-methylamino}-2-pyridyl}-methylthio-1H-benzimidazole]", "values": [{"measurement": "MIC", "value": "< 1", "unit": "µg/mL"}]}
{"smiles": "CN(CCN1CCC(Cc2ccccc2)CC1)c1ccnc(CSc2nc3ccccc3[nH]2)c1Cl", "note": "[Compound 12, 2-{3-Chloro-4-{N-[2-[4-benzyl-piperidino)-ethyl]-N-methylamino}-2-pyridyl}-methylthio-1H-benzimidazole]", "values": [{"measurement": "MIC", "value": "< 1", "unit": "µg/mL"}]}
{"smiles": "COc1ccccc1N1CCN(CCN(C)c2ccnc(CSc3nc4ccccc4[nH]3)c2Cl)CC1", "note": "[Compound 17, 2-{3-Chloro-4-{N-[2-(4-(2-methoxyphenyl)-piperazino)-ethyl]-N-methylamino}-2-pyridyl}-methylthio-1H-benzimidazole trihydrochloride]", "values": [{"measurement": "MIC", "value": "< 1", "unit": "µg/mL"}]}
{"smiles": "CN(CCN1CCc2ccccc2C1)c1ccnc(CSc2nc3ccccc3[nH]2)c1Cl", "note": "[Compound 2, 2-{3-Chloro-4-{N-[2-(1,2,3,4-tetrahydro-2-isoquinolinyl)ethyl]-N-methylamino}-2-pyridyl}-methylthio-1H-benzimidazole trihydrochloride]", "values": [{"measurement": "MIC", "value": "< 1", "unit": "µg/mL"}]}
{"smiles": "CN(CCCN1CCc2ccccc2C1)c1ccnc(CSc2nc3ccccc3[nH]2)c1Cl", "note": "[Compound 18, 2-{3-Chloro-4-{N-[3-(1,2,3,4-tetrahydro-2-isoquinolinyl)-propyl]-N-methylamino}-2-pyridyl}-methylthio-1H-benzimidazole trihydrochloride]", "values": [{"measurement": "MIC", "value": "< 1", "unit": "µg/mL"}]}
{"smiles": "CCN(CCN(C)c1ccnc(CSc2nc3ccccc3[nH]2)c1Cl)Cc1ccccc1", "note": "[Compound 1, 2-{3-Chloro-4-{N-[2-(N-benzyl-N-ethylamino)ethyl]-N-methylamino}-2-pyridyl)-methylthio-1H-benzimidazole trihydrochloride]", "values": [{"measurement": "MIC", "value": "< 1", "unit": "µg/mL"}]}
{"smiles": "Cc1c(N(C)CCN(C)Cc2ccco2)ccnc1CSc1nc2ccccc2[nH]1.Cl.Cl.Cl", "note": "[Compound 4, 2-{3-Methyl-4-{N-{2-[N-(2-furfuryl)-N-methylamino]-ethyl}-N-methylamino}-2-pyridyl}-methylthio-1H-benzimidazole trihydrochloride]", "values": [{"measurement": "MIC-Value", "value": "< 1", "unit": "µg/mL"}]}
{"smiles": "CN(CCN(C)c1ccnc(CSc2nc3ccccc3[nH]2)c1Cl)Cc1ccco1", "note": "[Compound 10, 2-{3-Chloro-4-{N-[2-(N-furfuryl-N-methylamino)ethyl]-N-methylamino}-2-pyridyl}-methylthio-1H-benzimidazole trihydrochloride]", "values": [{"measurement": "MIC", "value": "< 1", "unit": "µg/mL"}]}
{"smiles": "CN(CCc1ccccc1)CCN(C)c1ccnc(CSc2nc3ccccc3[nH]2)c1Cl", "note": "[Compound 9, 2-{3-Chloro-4-{N-[2-(N-methyl-N-phenethylamino)-ethyl]-N-methylamino}-2-pyridyl}-methylthio-1H-benzimidazole trihydrochloride]", "values": [{"measurement": "MIC", "value": "< 1", "unit": "µg/mL"}]}
{"smiles": "COc1cc2c(cc1OC)CN(CCCN(C)c1ccnc(CSc3nc4ccccc4[nH]3)c1Cl)CC2", "note": "[Compound 20, 2-{3-Chloro-4-{N-[3-(6,7-dimethoxy-1,2,3,4-tetrahydro-2-isoquinolinyl)-propyl]-N-methylamino}-2-pyridyl}-methylthio-1H-benzimidazole trihydrochloride]", "values": [{"measurement": "MIC", "value": "< 1", "unit": "µg/mL"}]}
{"smiles": "CN(CCCN1CCC(Cc2ccccc2)CC1)c1ccnc(CSc2nc3ccccc3[nH]2)c1Cl", "note": "[Compound 21, 2-{3-Chloro-4-{N-[3-(4-benzyl-piperidino)-propyl]-N-methylamino}-2-pyridyl}-methylthio-1H-benzimidazole trihydrochloride]", "values": [{"measurement": "MIC", "value": "< 1", "unit": "µg/mL"}]}
{"smiles": "CN(CCN(C)c1ccnc(CSc2nc3ccccc3[nH]2)c1Cl)Cc1ccccc1", "note": "[Compound 6, 2-{3-Chloro-4-{N-[2-(N-benzyl-N-methylamino)-ethyl]-N-methylamino}-2-pyridyl}-methylthio-1H-benzimidazole trihydrochloride]", "values": [{"measurement": "MIC", "value": "< 1", "unit": "µg/mL"}]}
{"smiles": "CN(CCN1CCN(Cc2ccccc2)CC1)c1ccnc(CSc2nc3ccccc3[nH]2)c1Cl", "note": "[Compound 16, 2-{3-Chloro-4-{N-[2-(4-benzylpiperazino)-ethyl]-N-methylamino}-2-pyridyl}-methylthio-1H-benzimidazole trihydrochloride]", "values": [{"measurement": "MIC", "value": "< 1", "unit": "µg/mL"}]}
{"smiles": "CN(CCN1CCN(c2ccccc2)CC1)c1ccnc(CSc2nc3ccccc3[nH]2)c1Cl", "note": "[Compound 15, 2-{3-Chloro-4-{N-[2-(4-phenylpiperazino)-ethyl]-N-methylamino}-2-pyridyl}-methylthio-1H-benzimidazole hydrochloride]", "values": [{"measurement": "MIC", "value": "< 1", "unit": "µg/mL"}]}
{"smiles": "CN(CCCN(C)c1ccnc(CSc2nc3ccccc3[nH]2)c1Cl)Cc1ccccc1", "note": "[Compound 19, 2-{3-Chloro-4-{N-[3-(N-benzyl-N-methylamino)propyl]-N-methylamino}-2-pyridyl}-methylthio-1H-benzimidazole trihydrochloride]", "values": [{"measurement": "MIC", "value": "< 1", "unit": "µg/mL"}]}
{"smiles": "CN(CCN1CCC(c2ccccc2)CC1)c1ccnc(CSc2nc3ccccc3[nH]2)c1Cl", "note": "[Compound 11, 2-{3-Chloro-4-{N-[2-(4-phenyl-piperidino)-ethyl]-N-methylamino}-2-pyridyl}-methylthio-1H-benzimidazole]", "values": [{"measurement": "MIC", "value": "< 1", "unit": "µg/mL"}]}
{"smiles": "CN(CCN1CCc2ccccc2C1)c1ccnc(CSc2nc3ncccc3[nH]2)c1Cl", "note": "[Compound 5, 2-{3-Chloro-4-{N-[2-(1,2,3,4-tetrahydro-2-isoquinolinyl)ethyl]-N-methylamino)-2-pyridyl}-methylthio-1H-imidazo[5,4-b]pyridine]", "values": [{"measurement": "MIC", "value": "< 1", "unit": "µg/mL"}]}
{"smiles": "CN(CCN1CCCCC1)c1ccnc(CSc2nc3ccccc3[nH]2)c1Cl", "note": "[Compound 13, 2-{3-Chloro-4-[N-(2-piperidinoethyl)-N-methylamino]-2-pyridyl}-methylthio-1H-benzimidazole]", "values": [{"measurement": "MIC", "value": "< 1", "unit": "µg/mL"}]}
